Results taken from patent publication US10584105B2, “Immunoproteasome inhibitor analogs” (The Regents of the University of California, priority 2016, dated 2020).

Key:
[1] = system: SK—N—SH neuroblastoma cells; experiment: Cell viability assay (MTS), SK—N—SH neuroblastoma cells; format: cell-based, human; details: for effect on viability of SK—N—SH cells: highest concentration tested (1 μM), 24 hours exposure
Procedure: (§1) (A) MYCN2, (B) SK—N—Be(2)c, and (C) SK—N—SH neuroblastoma cells were treated with 1 (NAM-105), 5 (NAM-93), or 6 (NAM-95) for 24 hours at three different concentrations (0.01, 0.1, and 1 μM). Bortezomib (BTZ) was included as a control. Cell viability was measured using the MTS reagent as described in the Methods section. Data shown are representative of two independent experiments, each performed in triplicate wells (n=6).
(§2) To determine the effect of the thiasyrbactins proteasome inhibitors on the viability of cancer cells, three different human neuroblastoma (NB) cell lines were used. BTZ was included as a control. SK—N—Be2c, SK—N—SH cells (ATCC, Manassas, Va.) and MYCN2 cells were plated overnight in RPMI media containing 10% heat-inactivated fetal bovine serum (FBS) (Invitrogen, Carlsbad, Calif., USA), supplemented with penicillin (100 U/ml) and streptomycin (100 μg/ml). Cells were cultured at 37° C. in a humidified atmosphere containing 5% CO2 and treated with 0.01, 0.1 and 1 μM proteasome inhibitor for 24 hours. Cell viability was determined using the Cell Titer 96 AQueous One Cell Proliferation Assay (Promega) reagent MTS by measuring absorbance at 490 nm using a Multi-Mode Synergy plate reader as Ibarra-Rivera et al. Assays were done in duplicate with triplicate wells of treatment per experiment (n=6). Data were expressed as the average cell viability relative to untreated control cells using Microsoft Excel™.

[2] = system: MYCN2 neuroblastoma cells; experiment: Cell viability assay (MTS), MYCN2 neuroblastoma cells; format: cell-based, human; details: for effect on viability of MYCN2 cells: highest concentration tested (1 μM), 24 hours exposure
Procedure: as §1, §2

[3] = molecular target: T1, immunoproteasome from human peripheral blood mononuclear cells (PBMCs), CT-L (β5) activity (Homo sapiens, UniProt P20618+P28062); experiment: In vitro proteasome activity assay, immunoproteasome, CT-L (β5); format: biochemical; details: for effect on CT-L (chymotrypsin-like) activity of the immunoproteasome (FIG. 5): 1.0 μM, 2 hours; for effect on CT-L activity of the immunoproteasome: at ≤10 μM
T1 construct: purchased Boston Biochem; host or cells: human peripheral blood mononuclear cells (native, purified)
Procedure: (§3) To determine the anti-proteasome activity of the thiasyrbactins in the in vitro environment, three catalytic activities (β1, β2, β5) of the proteasome were measured as described in Ibarra-Rivera et al., Tetrahedron 67:9950-6 (2011)). […] Purified 20S constitutive proteasome from human erythrocytes or immunoproteasome from human peripheral blood mononuclear cells (PBMCs) (Boston Biochem, Cambridge, Mass.) and luminogenic substrates Z-LRR-Glo, Z-nLPnLD-Glo, and Suc-LLVY-Glo (Promega, Fitchburg, Wis.) specific for the β1, β2, and β5 (also referred to as T-L, C-L, and CT-L) catalytic subunit activities, respectively, were used. Briefly, 2.2 ng/μL of constitutive proteasome and immunoproteosome were incubated with increasing concentration of proteasome inhibitor (0 to 10 μM) in 10 mM HEPES, pH 7.3, for two hours at 37° C. Equal volume of the appropriate luminogenic substrate was added to each reaction and luminescence was measured 10 minutes later using a Multi-Mode Synergy (Biotek, Inc., Winooski, Vt.) plate reader. Assays were done in triplicate (n=3). The Ki-50 values for each catalytic activity were determined for each of the inhibitors using Graphpad Prism 5 software (La Jolla, Calif.) and averaged using Microsoft Excel (Redmond, Wash.).
The thiasyrbactins were evaluated for their ability to inhibit each of the catalytic subunits of the constitutive and immunoproteasomes as well as for cytotoxic activity against neuroblastoma cancer cells. To test the inhibitory activity of 1 (NAM-105), 5 (NAM-93), and 6 (NAM-95), an in vitro assay was performed to test the effect of the thiasyrbactins on the three sub-catalytic activities (i.e., the CT-L, C-L, and T-L activities) of the constitutive proteasome and the immunoproteasome (Table 5).

[4] = molecular target: T2, immunoproteasome from human peripheral blood mononuclear cells (PBMCs), T-L (β2) activity (Homo sapiens, UniProt P40306+P49720); experiment: In vitro proteasome activity assay, immunoproteasome, T-L (β2); format: biochemical; details: 1 μM
T2 construct: purchased Boston Biochem; host or cells: human peripheral blood mononuclear cells (native, purified)
Procedure: as §3, with “Briefly, 2.2 ng/μL of constitutive proteasome and immunoproteosome were incubated with increasing concentration of proteasome inhibitor (0 to 10 μM) in 10 mM HEPES, pH 7.3, for two hours at 37° C.” left out, “Assays were done in triplicate (n=3).” left out
(§4) The thiasyrbactins were evaluated for their ability to inhibit each of the catalytic subunits of the constitutive and immunoproteasomes as well as for cytotoxic activity against neuroblastoma cancer cells. […]

[5] = system: ARD multiple myeloma (MM) cells; experiment: Cell viability (MTS), ARD multiple myeloma cells; format: cell-based; details: Homo sapiens, 24 hours, MTS assay, N=3, read-out: IC-50 cell viability ARD cells
Procedure: (§5) N=3. Cells were incubated for 24 hours in the presence of 1 (NAM-105), 5 (NAM-93), 6 (NAM-95) or DMSO (control) and cell viability measured using the MTS assay. IC-50s for ARD cells are 4.085±0.865 μM (5, NAM-93), N/A (6, NAM-95), and 1.673±0.337 μM (1, NAM-105). IC-50 for U266 cells are 3.308±0.916 μM (5, NAM-93), N/A (6, NAM-95), and 1.474±0.577 μM (1, NAM-105). N/A; not applicable (50% inhibition not reached at tested concentrations).

[6] = molecular target: T3, immunoproteasome from human peripheral blood mononuclear cells (PBMCs), C-L (β1) activity (Homo sapiens, UniProt P28065); experiment: In vitro proteasome activity assay, immunoproteasome, C-L (β1); format: biochemical
T3 construct: purchased Boston Biochem; host or cells: human peripheral blood mononuclear cells (native, purified)
Procedure: as §3, with “Briefly, 2.2 ng/μL of constitutive proteasome and immunoproteosome were incubated with increasing concentration of proteasome inhibitor (0 to 10 μM) in 10 mM HEPES, pH 7.3, for two hours at 37° C.” left out, “Assays were done in triplicate (n=3).” left out
as §4

[7] = system: U266 multiple myeloma (MM) cells; experiment: Cell viability (MTS), U266 multiple myeloma cells; format: cell-based; details: Homo sapiens, U-266; 24 hours, MTS assay, N=3; read-out: IC-50 cell viability U266 cells
Procedure: as §5

[8] = molecular target: T4, 20S constitutive proteasome from human erythrocytes, CT-L (β5) activity (Homo sapiens, UniProt P20618+P28074); experiment: In vitro proteasome activity assay, constitutive proteasome, CT-L (β5); format: biochemical; details: 1 μM
T4 construct: purchased Boston Biochem; host or cells: human erythrocytes (native, purified)
Procedure: as §3, with “Briefly, 2.2 ng/μL of constitutive proteasome and immunoproteosome were incubated with increasing concentration of proteasome inhibitor (0 to 10 μM) in 10 mM HEPES, pH 7.3, for two hours at 37° C.” left out, “Assays were done in triplicate (n=3).” left out
as §4

[9] = system: SK—N—Be(2)c neuroblastoma cells; experiment: Cell viability assay (MTS), SK—N—Be(2)c neuroblastoma cells; format: cell-based, human; details: highest concentration tested (1 μM), 24 hours exposure
Procedure: as §1
as §2, with “Cells were cultured at 37° C. in a humidified atmosphere containing 5% CO2 and treated with 0.01, 0.1 and 1 μM proteasome inhibitor for 24 hours.” left out

Structure (SMILES)	effect on CT-L (chymotrypsin-like) activity of the immunoproteasome (FIG. 5) [3]	inhibition vs. the trypsin-like activity of the immunoproteasome (screen, FIG. 5) [4]	effect on CT-L activity of the immunoproteasome [3]	IC50 [5]	effect on C-L activity of the immunoproteasome [6]	IC50 [7]	effect on viability of SK—N—SH cells [1]	effect on viability of MYCN2 cells [2]	effect on viability of SK—N—Be(2)c cells [9]	other results
CC(C)C[C@H](NC(=O)[C@H](Cc1ccccc1)NC(=O)c1cnccn1)B(O)O [BTZ, bortezomib, reference compound]	–	–	–	–	–	–	–	–	–	cytotoxic effects in SK—N—SH cells ([1]; 0.1-1 μM, 24 hours): strong cytotoxic effects; cytotoxic effects in MYCN2 cells ([2]; 0.1-1 μM, 24 hours): strong cytotoxic effects
CCCCCCCCCCCCNC(=O)N[C@H](C(=O)N[C@H]1C[S+]([O-])CCNC(=O)/C=C/[C@H](C)NC1=O)C(C)C (stereo partly drawn) [Compound 2, (2S)-2-(3-Dodecylureido)-3-methyl-N-((8S,11R,E)-8-methyl-1-oxido-5,10-dioxo-1-thia-4,9-diazacyclododec-6-en-11-yl)butanamide]	–	–	–	–	–	–	minimal effects	minimal effects	minimal effects	–

Further lines, with some results ahead:

effect on CT-L (chymotrypsin-like) activity of the immunoproteasome (FIG. 5) [3]	inhibition vs. the trypsin-like activity of the immunoproteasome (screen, FIG. 5) [4]	effect on CT-L activity of the immunoproteasome [3]	IC50 [5]	effect on C-L activity of the immunoproteasome [6]	IC50 [7]	Structure (SMILES)	effect on viability of SK—N—SH cells [1]	effect on viability of MYCN2 cells [2]	effect on viability of SK—N—Be(2)c cells [9]	other results
stimulate	good inhibition	–	–	–	–	CC(C)[C@H](NC(=O)c1cnccn1)C(=O)N[C@H]1CSCCNC(=O)/C=C/[C@H](C)NC1=O [Compound 6, N—((S)-3-Methyl-1-(((8S,11R,E)-8-methyl-5,10-dioxo-1-thia-4,9-diazacyclododec-6-en-11-yl)amino)-1-oxobutan-2-yl)pyrazine-2-carboxamide]	–	–	–	–
–	–	no effect	1.67 ± 0.337 µM	no effect	1.47 ± 0.577 µM	CCCCCCCCCCCCNC(=O)N[C@H](C(=O)N[C@H]1CSCCNC(=O)/C=C/[C@H](C)NC1=O)C(C)C [Compound 1, (S)-2-(3-Dodecylureido)-3-methyl-N-((8S,11R,E)-8-methyl-5,10-dioxo-1-thia-4,9-diazacyclododec-6-en-11-yl)butanamide]	–	–	–	viability of SK—N—SH cells, % of control (DMSO) ([1]; 24 hours, of control (DMSO)): 30-50%; viability of MYCN2 cells, % of control (DMSO) ([2]; 24 hours, of control (DMSO)): 30-50%; activity vs. the chymotrypsin-like activity of the constitutive proteasome (screen, FIG. 5) [8]: greatest activity
stimulate	good inhibition	no effect	4.08 ± 0.865 µM	no effect	3.31 ± 0.916 µM	CC(C)Cc1ccc([C@H](C)C(=O)N[C@H](C(=O)N[C@H]2CSCCNC(=O)/C=C/[C@H](C)NC2=O)C(C)C)cc1 [Compound 5, (S)-2-((S)-2-(4-Isobutylphenyl)propanamido)-3-methyl-N-((8S,11R,E)-8-methyl-5,10-dioxo-1-thia-4,9-diazacyclododec-6-en-11-yl)butanamide]	minimal effects	minimal effects	minimal effects	–
